From patent US20240092784A1, “CONDENSED HETEROCYCLIC COMPOUND” (NISSAN CHEMICAL CORPORATION, priority 2020, published 2024)

What follows are compounds tested against human SPR (Homo sapiens (Human), UniProt P35270) (assay: Evaluation Example 2: Measurement of human SPR inhibitory activity (seven concentrations, sepiapterin absorbance at 420 nm)). Details: Evaluation Example 2, seven concentrations 0.14 nM to 100 nM, 240 minutes at room temperature, read-out: IC50.
Chain of human SPR (P35270 whole entry): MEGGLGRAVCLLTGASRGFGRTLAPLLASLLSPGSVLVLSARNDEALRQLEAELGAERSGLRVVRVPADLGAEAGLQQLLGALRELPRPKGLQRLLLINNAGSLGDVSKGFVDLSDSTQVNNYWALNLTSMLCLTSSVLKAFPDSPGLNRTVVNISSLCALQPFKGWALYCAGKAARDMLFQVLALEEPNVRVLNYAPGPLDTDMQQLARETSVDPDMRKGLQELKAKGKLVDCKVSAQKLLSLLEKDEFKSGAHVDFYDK
Format: biochemical
Method in brief: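 Reactions ran 240 min at room temperature in 100 mM Tris-HCl pH 7.5 with 0.01% BSA. They contained tag-cleaved, E. coli-expressed full-length human SPR (diluted to 150 ng/mL), seven compound concentrations from 0.14 to 100 nM, and sepiapterin/NADPH added as a 120 μM/160 μM solution. Inhibition was calculated from sepiapterin absorbance at 420 nm.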
For `CC(C)Cn1c(=O)c(C(=O)NC2CC2)c(O)n2ncc(/C=C/C(=O)N3CCC(F)CC3)c12` [compound 463, (E)-N-Cyclopropyl-3-(3-(4-fluoropiperidin-1-yl)-3-oxoprop-1-en-1-yl)-7-hydroxy-4-isobutyl-5-oxo-4,5-dihydropyrazolo[1,5-a]pyrimidine-6-carboxamide], the IC50 was 0.97 nM. `CC(C)Cn1c(=O)c(C(=O)NC2CC2)c(O)n2ncc(/C=C/C(=O)N3CCC(F)(F)CC3)c12` [compound 464, (E)-N-Cyclopropyl-3-(3-(4,4-difluoropiperidin-1-yl)-3-oxoprop-1-en-1-yl)-7-hydroxy-4-isobutyl-5-oxo-4,5-dihydropyrazolo[1,5-a]pyrimidine-6-carboxamide] gave an IC50 of 0.8 nM. `CC(C)Cn1c(=O)c(C(=O)NC2CC2)c(O)n2ncc(/C=C/C(=O)N3CCC(OC(F)(F)F)CC3)c12` [compound 465, (E)-N-Cyclopropyl-7-hydroxy-4-isobutyl-5-oxo-3-(3-oxo-3-(4-(trifluoromethoxy)piperidin-1-yl)prop-1-en-1-yl)-4,5-dihydropyrazolo[1,5-a]pyrimidine-6-carboxamide] was tested, and the IC50 was 1.76 nM. For `CC(C)Cn1c(=O)c(C(=O)NC2CC2)c(O)n2ncc(/C=C/C(=O)N3CCC(C(F)F)CC3)c12` [compound 466, (E)-N-Cyclopropyl-3-(3-(4-(difluoromethyl)piperidin-1-yl)-3-oxoprop-1-en-1-yl)-7-hydroxy-4-isobutyl-5-oxo-4,5-dihydropyrazolo[1,5-a]pyrimidine-6-carboxamide], the IC50 was 1.27 nM. `CC(C)Cn1c(=O)c(C(=O)NC2CC2)c(O)n2ncc(/C=C/C(=O)N3CCC(C)(O)CC3)c12` [compound 467, (E)-N-Cyclopropyl-7-hydroxy-3-(3-(4-hydroxy-4-methylpiperidin-1-yl)-3-oxoprop-1-en-1-yl)-4-isobutyl-5-oxo-4,5-dihydropyrazolo[1,5-a]pyrimidine-6-carboxamide] gave an IC50 of 0.79 nM. Work on `CC(C)Cn1c(=O)c(C(=O)NC2CC2)c(O)n2ncc(/C=C/C(=O)N3CCC(C#N)CC3)c12` [compound 468] yielded an IC50 of 0.84 nM. `CC(C)Cn1c(=O)c(C(=O)NC2CC2)c(O)n2ncc(/C=C/C(=O)N3CCC(C(C)(F)F)CC3)c12` [compound 469] showed an IC50 of 0.89 nM. `COC1(C)CCN(C(=O)/C=C/c2cnn3c(O)c(C(=O)NC4CC4)c(=O)n(CC(C)C)c23)CC1` [compound 470] showed an IC50 of 0.88 nM. `CC(C)Cn1c(=O)c(C(=O)NC2CC2)c(O)n2ncc(/C=C/C(=O)N3CCN(C4CC4)CC3)c12` [compound 471, (E)-N-Cyclopropyl-3-(3-(4-cyclopropylpiperazin-1-yl)-3-oxoprop-1-en-1-yl)-7-hydroxy-4-isobutyl-5-oxo-4,5-dihydropyrazolo[1,5-a]pyrimidine-6-carboxamide] showed an IC50 of 1.18 nM. In the case of `CC(C)Cn1c(=O)c(C(=O)NC2CC2)c(O)n2ncc(/C=C/C(=O)N3CCN(C4CCC4)CC3)c12` [compound 472, (E)-3-(3-(4-Cyclobutylpiperazin-1-yl)-3-oxoprop-1-en-1-yl)-N-cyclopropyl-7-hydroxy-4-isobutyl-5-oxo-4,5-dihydropyrazolo[1,5-a]pyrimidine-6-carboxamide], the IC50 is reported as 1.12 nM. `CC(C)Cn1c(=O)c(C(=O)NC2CC2)c(O)n2ncc(/C=C/C(=O)N3CCC(C(C)C)CC3)c12` [compound 473, (E)-N-Cyclopropyl-7-hydroxy-4-isobutyl-3-(3-(4-isopropylpiperidin-1-yl)-3-oxoprop-1-en-1-yl)-5-oxo-4,5-dihydropyrazolo[1,5-a]pyrimidine-6-carboxamide] gave an IC50 of 2.11 nM. `CC(C)Cn1c(=O)c(C(=O)NC2CC2)c(O)n2ncc(/C=C/C(=O)N3CCC(C(C)(C)O)CC3)c12` [compound 474, (E)-N-Cyclopropyl-7-hydroxy-3-(3-(4-(2-hydroxypropan-2-yl)piperidin-1-yl)-3-oxoprop-1-en-1-yl)-4-isobutyl-5-oxo-4,5-dihydropyrazolo[1,5-a]pyrimidine-6-carboxamide] showed an IC50 of 0.88 nM. For `COCC1CCN(C(=O)/C=C/c2cnn3c(O)c(C(=O)NC4CC4)c(=O)n(CC(C)C)c23)CC1` [compound 475, (E)-N-Cyclopropyl-7-hydroxy-4-isobutyl-3-(3-(4-(methoxymethyl)piperidin-1-yl)-3-oxoprop-1-en-1-yl)-5-oxo-4,5-dihydropyrazolo[1,5-a]pyrimidine-6-carboxamide], the IC50 was 0.85 nM. `CC(C)Cn1c(=O)c(C(=O)NC2CC2)c(O)n2ncc(/C=C/C(=O)N3CCC(O)CC3)c12` [compound 476, (E)-N-Cyclopropyl-7-hydroxy-3-(3-(4-hydroxypiperidin-1-yl)-3-oxoprop-1-en-1-yl)-4-isobutyl-5-oxo-4,5-dihydropyrazolo[1,5-a]pyrimidine-6-carboxamide] was tested, and the IC50 was 0.75 nM. `CC(C)Cn1c(=O)c(C(=O)NC2CC2)c(O)n2ncc(/C=C/C(=O)N3CCC(C(N)=O)CC3)c12` [compound 477, (E)-3-(3-(4-Carbamoylpiperidin-1-yl)-3-oxoprop-1-en-1-yl)-N-cyclopropyl-7-hydroxy-4-isobutyl-5-oxo-4,5-dihydropyrazolo[1,5-a]pyrimidine-6-carboxamide] was tested, and the IC50 was 0.64 nM. With `CC(C)Cn1c(=O)c(C(=O)NC2CC2)c(O)n2ncc(/C=C/C(=O)N3CCC(OC4CCOCC4)CC3)c12` [compound 478, (E)-N-Cyclopropyl-7-hydroxy-4-isobutyl-5-oxo-3-(3-oxo-3-(4-((tetrahydro-2H-pyran-4-yl)oxy)piperidin-1-yl)prop-1-en-1-yl)-4,5-dihydropyrazolo[1,5-a]pyrimidine-6-carboxamide] the IC50 was 0.95 nM. For `CC(C)Cn1c(=O)c(C(=O)NC2CC2)c(O)n2ncc(/C=C/C(=O)N3CCC(C)(C)C3)c12` [compound 479, (E)-N-Cyclopropyl-3-(3-(3,3-dimethylpyrrolidin-1-yl)-3-oxoprop-1-en-1-yl)-7-hydroxy-4-isobutyl-5-oxo-4,5-dihydropyrazolo[1,5-a]pyrimidine-6-carboxamide], the IC50 was 1.05 nM. `CC(C)Cn1c(=O)c(C(=O)NC2CC2)c(O)n2ncc(/C=C/C(=O)N3CCC(C(F)(F)F)CC3)c12` [compound 480, (E)-N-Cyclopropyl-7-hydroxy-4-isobutyl-5-oxo-3-(3-oxo-3-(4-(trifluoromethyl)piperidine-1-yl)prop-1-en-1-yl)-4,5-dihydropyrazolo[1,5-a]pyrimidine-6-carboxamide] gave an IC50 of 1.12 nM. Work on `CC(C)Cn1c(=O)c(C(=O)NC2CC2)c(O)n2ncc(/C=C/C(=O)N3CC[C@@H](F)C3)c12` [compound 481, (R,E)-N-Cyclopropyl-3-(3-(3-fluoropyrrolidin-1-yl)-3-oxoprop-1-en-1-yl)-7-hydroxy-4-isobutyl-5-oxo-4,5-dihydropyrazolo[1,5-a]pyrimidine-6-carboxamide] yielded an IC50 of 0.75 nM. For `CC(C)Cn1c(=O)c(C(=O)NC2CC2)c(O)n2ncc(/C=C/C(=O)N3CC[C@H](C#N)C3)c12` [compound 482, (S,E)-3-(3-(3-Cyanopyrrolidin-1-yl)-3-oxoprop-1-en-1-yl)-N-cyclopropyl-7-hydroxy-4-isobutyl-5-oxo-4,5-dihydropyrazolo[1,5-a]pyrimidine-6-carboxamide], the IC50 was 0.71 nM. In the case of `CC(C)Cn1c(=O)c(C(=O)NC2CC2)c(O)n2ncc(/C=C/C(=O)N3CC[C@@H](C#N)C3)c12` [compound 483, (R,E)-3-(3-(3-Cyanopyrrolidin-1-yl)-3-oxoprop-1-en-1-yl)-N-cyclopropyl-7-hydroxy-4-isobutyl-5-oxo-4,5-dihydropyrazolo[1,5-a]pyrimidine-6-carboxamide], the IC50 is reported as 0.69 nM. `CC(C)Cn1c(=O)c(C(=O)NC2CC2)c(O)n2ncc(/C=C/C(=O)N3CCC[C@H]3C(F)(F)F)c12` [compound 484, (S,E)-N-Cyclopropyl-7-hydroxy-4-isobutyl-5-oxo-3-(3-oxo-3-(2-(trifluoromethyl)pyrrolidine-1-yl)prop-1-en-1-yl)-4,5-dihydropyrazolo[1,5-a]pyrimidine-6-carboxamide] was tested, and the IC50 was 1.2 nM. Work on `CC(C)Cn1c(=O)c(C(=O)NC2CC2)c(O)n2ncc(/C=C/C(=O)N3CCC[C@@H]3C(F)(F)F)c12` [compound 485, (R,E)-N-Cyclopropyl-7-hydroxy-4-isobutyl-5-oxo-3-(3-oxo-3-(2-(trifluoromethyl)pyrrolidine-1-yl)prop-1-en-1-yl)-4,5-dihydropyrazolo[1,5-a]pyrimidine-6-carboxamide] yielded an IC50 of 1.1 nM. `CC(C)Cn1c(=O)c(C(=O)NC2CC2)c(O)n2ncc(/C=C/C(=O)N3CCC[C@H]3C(N)=O)c12` [compound 486, (S,E)-3-(3-(2-Carbamoylpyrrolidin-1-yl)-3-oxoprop-1-en-1-yl)-N-cyclopropyl-7-hydroxy-4-isobutyl-5-oxo-4,5-dihydropyrazolo[1,5-a]pyrimidine-6-carboxamide] showed an IC50 of 0.92 nM. For `CC(C)Cn1c(=O)c(C(=O)NC2CC2)c(O)n2ncc(/C=C/C(=O)N3CCC[C@@H]3C(N)=O)c12` [compound 487, (R,E)-3-(3-(2-Carbamoylpyrrolidin-1-yl)-3-oxoprop-1-en-1-yl)-N-cyclopropyl-7-hydroxy-4-isobutyl-5-oxo-4,5-dihydropyrazolo[1,5-a]pyrimidine-6-carboxamide], the IC50 was 0.97 nM. Compound `CC(C)Cn1c(=O)c(C(=O)NC2CC2)c(O)n2ncc(/C=C/C(=O)N3CCC(S(C)(=O)=O)CC3)c12` [compound 488] has an IC50 of 0.87 nM. `CC(C)Cn1c(=O)c(C(=O)NC2CC2)c(O)n2ncc(/C=C/C(=O)N3CCOC(C)(C)C3)c12` [compound 489, (E)-N-Cyclopropyl-3-(3-(2,2-dimethylmorpholino)-3-oxoprop-1-en-1-yl)-7-hydroxy-4-isobutyl-5-oxo-4,5-dihydropyrazolo[1,5-a]pyrimidine-6-carboxamide] gave an IC50 of 0.93 nM. `CC(C)Cn1c(=O)c(C(=O)NC2CC2)c(O)n2ncc(/C=C/C(=O)N3C[C@H](C)O[C@@H](C)C3)c12` [compound 490, N-Cyclopropyl-3-((E)-3-((2S,6S)-2,6-dimethylmorpholino)-3-oxoprop-1-en-1-yl)-7-hydroxy-4-isobutyl-5-oxo-4,5-dihydropyrazolo[1,5-a]pyrimidine-6-carboxamide] was tested, and the IC50 was 0.88 nM. For `CC(C)Cn1c(=O)c(C(=O)NC2CC2)c(O)n2ncc(/C=C/C(=O)N3C[C@@H](C)O[C@H](C)C3)c12` [compound 491], the IC50 was 0.82 nM.
